Tests used:
[1] = target: T1, HSP90a protein (Homo sapiens, UniProt P07900); experiment: HSP90α-binding fluorescent polarization (FP) assay, BODIPY-labeled RNK04010 probe; conditions: FP competition with RNK04010 (BODIPY-labeled), 5 nM, 300 min at 25° C.
T1 construct: purchased BPS Bioscience 50298
In short: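 Binding was scored by fluorescence polarization after adding N-terminal HSP90a to wells holding probe and compound, with compound tested from 20 μM to 5.2 nM. Probe-dependent times at 25° C were 120 min for FITC-geldanamycin and 300 min for RNK04010-BODIPY, both at 5 nM final.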

[2] = system: NCI-H358 human non-small cell lung cancer; experiment: NCI-H358 CCK-8 proliferation assay; format: cell-based; conditions: NCI-H358 cells, 72 hr
In short: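 Proliferation of mutant-KRAS(G12C) cells (2 copies in MIA PaCa-2, single copy in NCI-H358/NCI-H23) measured with CCK-8 after treatment across 20 μM–1.02 nM; inhibition expressed relative to vehicle-treated wells after subtracting no-cell background.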

SMILES | IC50 [1] | EC50 [2]
CCc1cc(-c2nnc(O)n2-c2ccc(CNC(=O)CCNc3nc4c(c(N5CCN(C(C)=O)CC5)n3)CCN(c3cc(O)cc5ccccc35)C4)c(C(F)(F)F)c2)c(O)cc1O [Compound 53, 3-((4-(4-acetylpiperazin-1-yl)-7-(3-hydroxynaphthalen-1-yl)-5,6,7,8-tetrahydropyrido[3,4-d]pyrimidin-2-yl)amino)-N-(4-(3-(5-ethyl-2,4-dihydroxyphenyl)-5-hydroxy-4H-1,2,4-triazol-4-yl)-2-(trifluoromethyl)benzyl)propanamide, trifluoroacetic acid] | > 1000 nM | > 1000 nM
CC(=O)N1CCN(c2nc(NCCC(=O)N3CCN(Cc4ccc5c(c4)CN(C(=O)c4cc(C(C)C)c(O)cc4O)C5)CC3)nc3c2CCN(c2cc(O)cc4ccccc24)C3)CC1 [Compound 56, 3-((4-(4-acetylpiperazin-1-yl)-7-(3-hydroxynaphthalen-1-yl)-5,6,7,8-tetrahydropyrido[3,4-d]pyrimidin-2-yl)amino)-1-(4-((2-(2,4-dihydroxy-5-isopropylbenzoyl)isoindolin-5-yl)methyl)piperazin-1-yl)propan-1-one, trifluoroacetic acid] | 100 to 1000 nM | > 1000 nM
CCC(=O)N1CCN(c2nc(NCCC(=O)N3CCN(Cc4ccc5c(c4)CN(C(=O)c4cc(C(C)C)c(O)cc4O)C5)CC3)nc3c2CCN(c2cc(O)cc4ccccc24)C3)CC1 [Compound 57, 1-(4-((2-(2,4-dihydroxy-5-isopropylbenzoyl)isoindolin-5-yl)methyl)piperazin-1-yl)-3-((7-(3-hydroxynaphthalen-1-yl)-4-(4-propionylpiperazin-1-yl)-5,6,7,8-tetrahydropyrido[3,4-d]pyrimidin-2-yl)amino)propan-1-one, trifluoroacetic acid] | 100 to 1000 nM | > 1000 nM
C=CC(=O)N1CCN(c2nc(NCCC(=O)N3CCN(Cc4ccc5c(c4)CN(C(=O)c4cc(C(C)C)c(O)cc4O)C5)CC3)nc3c2CCN(c2cc(O)cc4ccccc24)C3)CC1 [Compound 58, 1-(4-(2-((3-(4-((2-(2,4-dihydroxy-5-isopropylbenzoyl)isoindolin-5-yl)methyl)piperazin-1-yl)-3-oxopropyl)amino)-7-(3-hydroxynaphthalen-1-yl)-5,6,7,8-tetrahydropyrido[3,4-d]pyrimidin-4-yl)piperazin-1-yl)prop-2-en-1-one] | 100 to 1000 nM | > 1000 nM
CCC(=O)N1CCN(c2nc(NCCC(=O)N3CCC(CN4CCN(Cc5ccc(-n6c(O)nnc6-c6ccc(O)cc6O)cc5)CC4)CC3)nc3c2CCN(c2cc(O)cc4ccccc24)C3)CC1 [Compound 65, 1-(4-((4-(4-(3-(2,4-dihydroxyphenyl)-5-hydroxy-4H-1,2,4-triazol-4-yl)benzyl)piperazin-1-yl)methyl)piperidin-1-yl)-3-((7-(3-hydroxynaphthalen-1-yl)-4-(4-propionylpiperazin-1-yl)-5,6,7,8-tetrahydropyrido[3,4-d]pyrimidin-2-yl)amino)propan-1-one, trifluoroacetic acid] | 100 to 1000 nM | > 1000 nM
CCC(=O)N1CCN(c2nc(NCCC(=O)N3CCN(Cc4ccc5c(c4)CN(C(=O)c4cc(CC)c(O)cc4O)C5)CC3)nc3c2CCN(c2cc(O)cc4ccccc24)C3)CC1 [Compound 66, 1-(4-((2-(5-ethyl-2,4-dihydroxybenzoyl)isoindolin-5-yl)methyl)piperazin-1-yl)-3-((7-(3-hydroxynaphthalen-1-yl)-4-(4-propionylpiperazin-1-yl)-5,6,7,8-tetrahydropyrido[3,4-d]pyrimidin-2-yl)amino)propan-1-one, trifluoroacetic acid] | > 1000 nM | > 1000 nM
CCc1cc(C(=O)N2Cc3ccc(CN4CCN(C(=O)CCNc5nc6c(c(N7CCN(C(C)=O)CC7)n5)CCN(c5cc(O)cc7ccccc57)C6)CC4)cc3C2)c(O)cc1O [Compound 67, 3-((4-(4-acetylpiperazin-1-yl)-7-(3-hydroxynaphthalen-1-yl)-5,6,7,8-tetrahydropyrido[3,4-d]pyrimidin-2-yl)amino)-1-(4-((2-(5-ethyl-2,4-dihydroxybenzoyl)isoindolin-5-yl)methyl)piperazin-1-yl)propan-1-one, trifluoroacetic acid] | 100 to 1000 nM | > 1000 nM
C=CC(=O)N1CCN(c2nc(NCCC(=O)N3CCN(Cc4ccc5c(c4)CN(C(=O)c4cc(CC)c(O)cc4O)C5)CC3)nc3c2CCN(c2cc(O)cc4ccccc24)C3)CC1 [Compound 68, 1-(4-(2-((3-(4-((2-(5-ethyl-2,4-dihydroxybenzoyl)isoindolin-5-yl)methyl)piperazin-1-yl)-3-oxopropyl)amino)-7-(3-hydroxynaphthalen-1-yl)-5,6,7,8-tetrahydropyrido[3,4-d]pyrimidin-4-yl)piperazin-1-yl)prop-2-en-1-one, trifluoroacetic acid] | > 1000 nM | > 1000 nM
CC(=O)N1CCN(c2nc(NCCC(=O)NCCOCCOc3ccc(-n4c(O)nnc4-c4cc(C(C)C)c(O)cc4O)cc3)nc3c2CCN(c2cc(O)cc4ccccc24)C3)CC1 [Compound 70, 3-((4-(4-acetylpiperazin-1-yl)-7-(3-hydroxynaphthalen-1-yl)-5,6,7,8-tetrahydropyrido[3,4-d]pyrimidin-2-yl)amino)-N-(2-(2-(4-(3-(2,4-dihydroxy-5-isopropylphenyl)-5-hydroxy-4H-1,2,4-triazol-4-yl)phenoxy)ethoxy)ethyl)propanamide, trifluoroacetic acid] | 100 to 1000 nM | > 1000 nM
C=CC(=O)N1CCN(c2nc(NCCC(=O)NCCOCCOc3ccc(-n4c(O)nnc4-c4cc(C(C)C)c(O)cc4O)cc3)nc3c2CCN(c2cc(O)cc4ccccc24)C3)CC1 [Compound 72, trifluoroacetic acid] | < 100 nM | > 1000 nM
CCC(=O)N1CCN(c2nc(NCCC(=O)NCCOCCOc3ccc(-n4c(O)nnc4-c4cc(C(C)C)c(O)cc4O)cc3)nc3c2CCN(c2cc(O)cc4ccccc24)C3)CC1 [Compound 73, N-(2-(2-(4-(3-(2,4-dihydroxy-5-isopropylphenyl)-5-hydroxy-4H-1,2,4-triazol-4-yl)phenoxy)ethoxy)ethyl)-3-((7-(3-hydroxynaphthalen-1-yl)-4-(4-propionylpiperazin-1-yl)-5,6,7,8-tetrahydropyrido[3,4-d]pyrimidin-2-yl)amino)propanamide, trifluoroacetic acid] | 100 to 1000 nM | > 1000 nM
CCC(=O)N1CCN(c2nc(NCCC(=O)NCCc3ccc(-n4c(O)nnc4-c4cc(C(C)C)c(O)cc4O)cc3)nc3c2CCN(c2cc(O)cc4ccccc24)C3)CC1 [Compound 74, N-(4-(3-(2,4-dihydroxy-5-isopropylphenyl)-5-hydroxy-4H-1,2,4-triazol-4-yl)phenethyl)-3-((7-(3-hydroxynaphthalen-1-yl)-4-(4-propionylpiperazin-1-yl)-5,6,7,8-tetrahydropyrido[3,4-d]pyrimidin-2-yl)amino)propanamide, trifluoroacetic acid] | 100 to 1000 nM | > 1000 nM
